Experimental data: ChEMBL document CHEMBL4257522, “Synthesis and preliminary anti-inflammatory and anti-bacterial evaluation of some diflunisal aza-analogs” (Medchemcomm, 2018)
The source made the active and inactive calls. No cut-off for these calls is given here.

Key:
Macrophage cell line [1] = test: Cytotoxicity against human PBMC-differentiated macrophages treated for 24 hrs followed by compound washout and measured after 48 hrs by MTT assay; type: cell-based
Macrophage cell line [2] = test: Antiinflammatory activity in human PBMC-differentiated macrophages assessed as inhibition of LPS-induced prostaglandin production at 0.01 to 10 uM measured after 24 hrs by ELISA; type: functional, cell-based
Macrophage cell line [3] = test: Induction of TNFalpha production in human PBMC-differentiated macrophages after 24 hrs by ELISA; type: cell-based
Macrophage cell line [4] = test: Induction of IL-8 production in human PBMC-differentiated macrophages after 24 hrs by ELISA; type: cell-based
Macrophage cell line [5] = test: Induction of IL-1beta production in human PBMC-differentiated macrophages after 24 hrs by ELISA; type: cell-based
Macrophage cell line [6] = test: Induction of prostaglandin production in human PBMC-differentiated macrophages after 24 hrs by ELISA; type: cell-based
Staphylococcus aureus [7] = test: Toxicity in Staphylococcus aureus ATCC 33592 up to 32 uM measured after 16 hrs; type: organism-based
Streptococcus pyogenes [8] = test: Toxicity in Streptococcus pyogenes ATCC 14289 up to 32 uM measured after 16 hrs; type: organism-based
Enterococcus faecium [9] = test: Toxicity in Enterococcus faecium ATCC 700221 up to 32 uM measured after 16 hrs; type: organism-based; settings: in vitro
Escherichia coli [10] = test: Toxicity in Escherichia coli ATCC 43894 up to 32 uM measured after 16 hrs; type: organism-based
Staphylococcus aureus [11] = test: Potentiation of methicillin-induced antibacterial activity against Staphylococcus aureus ATCC 33592 assessed as minimum modulatory concentration up to 32 uM measured after 16 hrs in presence of MIC/4 methicillin; type: functional; settings: ATCC 33592, 16 h, read-out: MEC
Staphylococcus aureus [12] = test: Potentiation of tetracycline-induced antibacterial activity against Staphylococcus aureus ATCC 33592 assessed as minimum modulatory concentration up to 32 uM measured after 16 hrs in presence of MIC/4 tetracycline; type: functional; settings: ATCC 33592, 16 h, read-out: MEC
Streptococcus pyogenes [13] = test: Potentiation of methicillin-induced antibacterial activity against Streptococcus pyogenes ATCC 14289 assessed as minimum modulatory concentration up to 32 uM measured after 16 hrs in presence of MIC/4 methicillin; type: functional; settings: ATCC 14289, 16 h, read-out: MEC
Streptococcus pyogenes [14] = test: Potentiation of ciprofloxacin-induced antibacterial activity against Streptococcus pyogenes ATCC 14289 assessed as minimum modulatory concentration up to 32 uM measured after 16 hrs in presence of MIC/4 ciprofloxacin; type: functional; settings: ATCC 14289, 16 h, read-out: MEC
Streptococcus pyogenes [15] = test: Potentiation of tetracycline-induced antibacterial activity against Streptococcus pyogenes ATCC 14289 assessed as minimum modulatory concentration up to 32 uM measured after 16 hrs in presence of MIC/4 tetracycline; type: functional; settings: ATCC 14289, 16 h, read-out: MEC
Klebsiella pneumoniae [16] = test: Potentiation of methicillin-induced antibacterial activity against Klebsiella pneumoniae ATCC 13883 assessed as minimum modulatory concentration up to 32 uM measured after 16 hrs in presence of MIC/4 methicillin; type: functional; settings: ATCC 13883, 16 h, read-out: MEC
Klebsiella pneumoniae [17] = test: Potentiation of geneticin-induced antibacterial activity against Klebsiella pneumoniae ATCC 13883 assessed as minimum modulatory concentration up to 32 uM measured after 16 hrs in presence of MIC/4 geneticin; type: functional; settings: ATCC 13883, 16 h, read-out: MEC
Klebsiella pneumoniae [18] = test: Potentiation of ciprofloxacin-induced antibacterial activity against Klebsiella pneumoniae ATCC 13883 assessed as minimum modulatory concentration up to 32 uM measured after 16 hrs in presence of MIC/4 ciprofloxacin; type: functional; settings: ATCC 13883, 16 h, read-out: MEC
Klebsiella pneumoniae [19] = test: Potentiation of tetracycline-induced antibacterial activity against Klebsiella pneumoniae ATCC 13883 assessed as minimum modulatory concentration up to 32 uM measured after 16 hrs in presence of MIC/4 tetracycline; type: functional; settings: ATCC 13883, 16 h, read-out: MEC
Klebsiella pneumoniae [20] = test: Potentiation of erythromycin-induced antibacterial activity against Klebsiella pneumoniae ATCC 13883 assessed as minimum modulatory concentration up to 32 uM measured after 16 hrs in presence of MIC/4 erythromycin; type: functional; settings: ATCC 13883, 16 h, read-out: MEC
Enterococcus faecium [21] = test: Potentiation of geneticin-induced antibacterial activity against Enterococcus faecium ATCC 700221 assessed as minimum modulatory concentration up to 32 uM measured after 16 hrs in presence of MIC/4 geneticin; type: functional; settings: ATCC 700221, 16 h, read-out: MEC
Enterococcus faecium [22] = test: Potentiation of ciprofloxacin-induced antibacterial activity against Enterococcus faecium ATCC 700221 assessed as minimum modulatory concentration up to 32 uM measured after 16 hrs in presence of MIC/4 ciprofloxacin; type: functional; settings: ATCC 700221, 16 h, read-out: MEC
Enterococcus faecium [23] = test: Potentiation of tetracycline-induced antibacterial activity against Enterococcus faecium ATCC 700221 assessed as minimum modulatory concentration up to 32 uM measured after 16 hrs in presence of MIC/4 tetracycline; type: functional; settings: ATCC 700221, 16 h, read-out: MEC
Enterococcus faecium [24] = test: Potentiation of erythromycin-induced antibacterial activity against Enterococcus faecium ATCC 700221 assessed as minimum modulatory concentration up to 32 uM measured after 16 hrs in presence of MIC/4 erythromycin; type: functional; settings: ATCC 700221, 16 h, read-out: MEC
Pseudomonas aeruginosa [25] = test: Potentiation of methicillin-induced antibacterial activity against Pseudomonas aeruginosa ATCC BAA-2108 assessed as minimum modulatory concentration up to 32 uM measured after 16 hrs in presence of MIC/4 methicillin; type: functional; settings: ATCC BAA-2108, 16 h, read-out: MEC
Pseudomonas aeruginosa [26] = test: Potentiation of geneticin-induced antibacterial activity against Pseudomonas aeruginosa ATCC BAA-2108 assessed as minimum modulatory concentration up to 32 uM measured after 16 hrs in presence of MIC/4 geneticin; type: functional; settings: ATCC BAA-2108, 16 h, read-out: MEC
Pseudomonas aeruginosa [27] = test: Potentiation of ciprofloxacin-induced antibacterial activity against Pseudomonas aeruginosa ATCC BAA-2108 assessed as minimum modulatory concentration up to 32 uM measured after 16 hrs in presence of MIC/4 ciprofloxacin; type: functional; settings: ATCC BAA-2108, 16 h, read-out: MEC
Pseudomonas aeruginosa [28] = test: Potentiation of tetracycline-induced antibacterial activity against Pseudomonas aeruginosa ATCC BAA-2108 assessed as minimum modulatory concentration up to 32 uM measured after 16 hrs in presence of MIC/4 tetracycline; type: functional; settings: ATCC BAA-2108, 16 h, read-out: MEC
Pseudomonas aeruginosa [29] = test: Potentiation of erythromycin-induced antibacterial activity against Pseudomonas aeruginosa ATCC BAA-2108 assessed as minimum modulatory concentration up to 32 uM measured after 16 hrs in presence of MIC/4 erythromycin; type: functional; settings: ATCC BAA-2108, 16 h, read-out: MEC
Escherichia coli [30] = test: Potentiation of methicillin-induced antibacterial activity against Escherichia coli ATCC 43894 assessed as minimum modulatory concentration up to 32 uM measured after 16 hrs in presence of MIC/4 methicillin; type: functional; settings: ATCC 43894, 16 h, read-out: MEC
Escherichia coli [31] = test: Potentiation of geneticin-induced antibacterial activity against Escherichia coli ATCC 43894 assessed as minimum modulatory concentration up to 32 uM measured after 16 hrs in presence of MIC/4 geneticin; type: functional; settings: ATCC 43894, 16 h, read-out: MEC
Escherichia coli [32] = test: Potentiation of ciprofloxacin-induced antibacterial activity against Escherichia coli ATCC 43894 assessed as minimum modulatory concentration up to 32 uM measured after 16 hrs in presence of MIC/4 ciprofloxacin; type: functional; settings: ATCC 43894, 16 h, read-out: MEC
Escherichia coli [33] = test: Potentiation of tetracycline-induced antibacterial activity against Escherichia coli ATCC 43894 assessed as minimum modulatory concentration up to 32 uM measured after 16 hrs in presence of MIC/4 tetracycline; type: functional; settings: ATCC 43894, 16 h, read-out: MEC
Escherichia coli [34] = test: Potentiation of erythromycin-induced antibacterial activity against Escherichia coli ATCC 43894 assessed as minimum modulatory concentration up to 32 uM measured after 16 hrs in presence of MIC/4 erythromycin; type: functional; settings: ATCC 43894, 16 h, read-out: MEC

| SMILES | IC50 (Macrophage cell line [1]) | inhibition (Macrophage cell line [2]) | Activity (Macrophage cell line [3]) | Activity (Macrophage cell line [4]) | Activity (Macrophage cell line [5]) | Activity (Macrophage cell line [6]) | Activity (Staphylococcus aureus [7]) | Activity (Streptococcus pyogenes [8]) | Activity (Enterococcus faecium [9]) | Activity (Escherichia coli [10]) | minimal effective concentration (Staphylococcus aureus [11]) | minimal effective concentration (Staphylococcus aureus [12]) | minimal effective concentration (Streptococcus pyogenes [13]) | minimal effective concentration (Streptococcus pyogenes [14]) | minimal effective concentration (Streptococcus pyogenes [15]) | minimal effective concentration (Klebsiella pneumoniae [16]) | minimal effective concentration (Klebsiella pneumoniae [17]) | minimal effective concentration (Klebsiella pneumoniae [18]) | minimal effective concentration (Klebsiella pneumoniae [19]) | minimal effective concentration (Klebsiella pneumoniae [20]) | further results |
| --- | --- | --- | --- | --- | --- | --- | --- | --- | --- | --- | --- | --- | --- | --- | --- | --- | --- | --- | --- | --- | --- |
| O=C(O)c1cc(O)c(-c2ccccc2)nc1-c1ccccc1 | 92.1 µM | inactive | Non-Toxic | Non-Toxic | Non-Toxic | Non-Toxic | Non-Toxic | Non-Toxic | Non-Toxic | Non-Toxic | 4 µM | 8 µM | 1 µM | > 32 µM | 4 µM | > 32 µM | > 32 µM | > 32 µM | > 32 µM | > 32 µM | minimal effective concentration (Enterococcus faecium [21]): 4 µM; minimal effective concentration (Enterococcus faecium [22]): > 32 µM; minimal effective concentration (Enterococcus faecium [23]): 2 µM; minimal effective concentration (Enterococcus faecium [24]): 2 µM; minimal effective concentration (Pseudomonas aeruginosa [25]): 16 µM; minimal effective concentration (Pseudomonas aeruginosa [26]): > 32 µM; minimal effective concentration (Pseudomonas aeruginosa [27]): 4 µM; minimal effective concentration (Pseudomonas aeruginosa [28]): > 32 µM; minimal effective concentration (Pseudomonas aeruginosa [29]): 8 µM; minimal effective concentration (Escherichia coli [30]): > 32 µM; minimal effective concentration (Escherichia coli [31]): > 32 µM; minimal effective concentration (Escherichia coli [32]): > 32 µM; minimal effective concentration (Escherichia coli [33]): > 32 µM; minimal effective concentration (Escherichia coli [34]): > 32 µM |
| O=C(O)c1ccnc(-c2ccccc2)c1O | > 100 µM | inactive | Non-Toxic | Non-Toxic | Non-Toxic | Non-Toxic | Non-Toxic | Non-Toxic | Non-Toxic | Non-Toxic | 0.25 µM | 2 µM | 0.5 µM | > 32 µM | 1 µM | > 32 µM | > 32 µM | > 32 µM | > 32 µM | > 32 µM | minimal effective concentration (Enterococcus faecium [21]): 4 µM; minimal effective concentration (Enterococcus faecium [22]): > 32 µM; minimal effective concentration (Enterococcus faecium [23]): 2 µM; minimal effective concentration (Enterococcus faecium [24]): 4 µM; minimal effective concentration (Pseudomonas aeruginosa [25]): 8 µM; minimal effective concentration (Pseudomonas aeruginosa [26]): > 32 µM; minimal effective concentration (Pseudomonas aeruginosa [27]): 4 µM; minimal effective concentration (Pseudomonas aeruginosa [28]): > 32 µM; minimal effective concentration (Pseudomonas aeruginosa [29]): 4 µM; minimal effective concentration (Escherichia coli [30]): > 32 µM; minimal effective concentration (Escherichia coli [31]): > 32 µM; minimal effective concentration (Escherichia coli [32]): > 32 µM; minimal effective concentration (Escherichia coli [33]): > 32 µM; minimal effective concentration (Escherichia coli [34]): > 32 µM |
| O=C(O)c1ccnc(Cc2ccccc2)c1O | > 100 µM | inactive | Non-Toxic | Non-Toxic | Non-Toxic | Non-Toxic | Non-Toxic | Non-Toxic | Non-Toxic | Non-Toxic | > 32 µM | > 32 µM | > 32 µM | > 32 µM | > 32 µM | > 32 µM | > 32 µM | > 32 µM | > 32 µM | > 32 µM | minimal effective concentration (Enterococcus faecium [21]): > 32 µM; minimal effective concentration (Enterococcus faecium [22]): > 32 µM; minimal effective concentration (Enterococcus faecium [23]): > 32 µM; minimal effective concentration (Enterococcus faecium [24]): > 32 µM; minimal effective concentration (Pseudomonas aeruginosa [25]): > 32 µM; minimal effective concentration (Pseudomonas aeruginosa [26]): > 32 µM; minimal effective concentration (Pseudomonas aeruginosa [27]): > 32 µM; minimal effective concentration (Pseudomonas aeruginosa [28]): > 32 µM; minimal effective concentration (Pseudomonas aeruginosa [29]): > 32 µM; minimal effective concentration (Escherichia coli [30]): > 32 µM; minimal effective concentration (Escherichia coli [31]): > 32 µM; minimal effective concentration (Escherichia coli [32]): > 32 µM; minimal effective concentration (Escherichia coli [33]): > 32 µM; minimal effective concentration (Escherichia coli [34]): > 32 µM |
